Measurements: patent US6852706B1, “Methods and compositions for healing heart wounds” (The Wistar Institute, priority 2000, dated 2005)

Experiments:
[1] = system: C57B1/6 mice
Protocol: Cardiac injury. Myocardial injury is cryogenically initiated, employing a technique adapted from Taylor et al. (1998) (ref 28). Adult MRL and C57B1/6 mice (6-8 weeks of age) were anaesthetized using an intraperitoneal injection of ketamine (100 mg/kg) and xylazine (15 mg/kg). A 2 mm diameter blunt probe cooled to the temperature of liquid Nitrogen is then introduced, trans-diaphragmatically, to the right ventricular surface of the heart.
Access to the diaphragm was accomplished by a 6-8 mm incision made through the skin on the ventral surface of the abdomen below the ribcage approximately 5 mm posterior to—and approximately 5 mm to the left of the ventral midline—the sternum. The underlying musculature was incised to an equivalent extent. The diaphragm was exposed using forceps to retract the medial lobe of the liver. The right ventricular surface of the heart was thus presented directly adjacent to, and clearly visible through, the diaphragm. Injury to the heart was achieved by holding the cryoprobe in contact with the diaphragmatic surface for 10 seconds and repeated using a second, identical cryoprobe. The abdominal musculature was then repositioned and closed using 6-0 […] suture. The 6-0 nylon suture was also used for skin closure.
Histology Frozen sections: Hearts were removed and frozen in isopentane cooled to −160° C. in liquid nitrogen. Eight micron-thick sections were cut for immunohistochemistry and histology. Fixed sections: Hearts were fixed in Prefer Fixative (Anatheh Ltd.). Paraffin-embedded sections cut to a thickness of 5 microns were used for both histology and immunohistochemistry.
We also treated nonhealer C57B1/6 mice with PTU, which is known to inhibit thyroid activity.

[2] = system: B6 mouse; conditions: 15 days after PTU treatment
[3] = system: MRL mice; experiment: Cryo-injury of the heart in MRL (healer) mice given slow-release T3 pellets; format: in vivo, mouse; conditions: pellets containing 0.01 mg T3, slow release (21 days), 0.0005 mg/day, injured one day later
Protocol: The underlying musculature was incised to an equivalent extent.
To determine whether administering T3 to MRL mice inhibits healing of ear and heart wounds, we placed pellets containing 0.01 mg of T3 in a slow release formulation (21 days) in MRL mice. Via these pellets, the mice received 0.0005 mg/day of T3 . Mice were injured one day later.

[4] = wounded C57B1/6 mice pretreated with PTU

CCCc1cc(=O)[nH]c(=S)[nH]1 [PTU, propylthiouracil]
Heart wound healing and epithelial growth at larger concentrations ([1]; C57B1/6 mice, PTU 2 or 3 mg/day): better healing and greater epithelial growth | Epithelial layer versus untreated C57B1/6 mice [1, 4]: more intact epithelial layer | Growth of myocardium versus untreated C57B1/6 mice [1, 4]: significantly greater growth of myocardium | Ear hole size versus untreated B6 ear holes [2]: smaller | Proliferation in ear hole wound [2]: impressive degree of epithelial proliferation, as well as muscle and adipocyte proliferation

N[C@@H](Cc1cc(I)c(Oc2ccc(O)c(I)c2)c(I)c1)C(=O)O [T3]
Healing of heart wound [3]: never healed | Heart wound scarring / fibrotic tissue ([3]; by day 15): severely scarred, with a large degree of fibrotic tissue
